# Results: patent publication US11154559B2, “Methods and compositions of bile acids” (The General Hospital Corporation, priority 2011, dated 2021)
# Assay: Effect of subcutaneous TUDCA on weight gain and food intake in mice on a high-fat diet
# Type: in vivo, C57BL/6J mice
# Conditions: 500 mg/kg s.c. twice a week vs placebo
# Procedure: To examine the effect of circulating bile acids on body weight gain, C57BL/6J mice on a high-fat diet (HFD) were given subcutaneous injections of tauroursodeoxycholic acid (TUDCA, 500 mg/kg) or placebo for 10 weeks (N=6 per group). TUDCA was prepared daily in 0.15 M NaHCO3 (pH adjusted to 7.4). TUDCA or placebo (0.15 M NaHCO3, pH 7.4) was administered twice a week (Monday/Thursday) as 10 μl solution/g of body weight. Body weight (BW) was measured and recorded immediately before each injection and used to calculate the TUDCA or placebo dose to be administered.
# Animals were 10 weeks of age at the start of the experiment (BW=32.6 g±2.6) and were on a […] from weaning that provided 60% of total energy as fat, 20% as carbohydrate, and 20% as protein (D12492 diet; Research Diets, New Brunswick, N.J.). Animals were individually housed on wire floors without bedding and maintained on a 12-hour light-dark cycle (lights on at 0700 hours) in a facility with an ambient temperature of 19-22° C.
# Body weight was recorded twice a week, food intake was obtained weekly, and fasting blood glucose was measured every other week.
compound,measurement,setting,value
"C[C@H](CCC(=O)NCCS(=O)(=O)O)[C@H]1CC[C@H]2[C@@H]3[C@@H](O)C[C@@H]4C[C@H](O)CC[C@]4(C)[C@H]3CC[C@]12C [TUDCA, tauroursodeoxycholic acid]",percent weight change from baseline,"high-fat diet, FIG. 35",trend toward decreased weight
same,weight gain,"high-fat diet, not statistically significant, FIG. 34",trend towards decreased weight gain
same,weekly food intake,FIG. 36,similar
same,cumulative food intake,FIG. 37,similar
